# T1: CD46 (human, UniProt P15529 35-392)
# T1 construct: whole, on cells; also called cell surface CD46
# T1 sequence (looked up): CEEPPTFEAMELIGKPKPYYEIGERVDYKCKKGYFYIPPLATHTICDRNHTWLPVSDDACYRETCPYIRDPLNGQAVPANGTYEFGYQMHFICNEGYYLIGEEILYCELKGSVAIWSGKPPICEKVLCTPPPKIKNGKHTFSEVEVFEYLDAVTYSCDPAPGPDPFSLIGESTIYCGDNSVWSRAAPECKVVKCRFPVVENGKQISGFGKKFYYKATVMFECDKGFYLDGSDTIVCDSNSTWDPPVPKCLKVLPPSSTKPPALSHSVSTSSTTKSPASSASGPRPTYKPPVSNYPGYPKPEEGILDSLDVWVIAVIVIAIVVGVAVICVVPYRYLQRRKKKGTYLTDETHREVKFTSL
# Columns and labels:
# [1] = test system: CD46 cell surface expression on RPMI8226 cells; assay: CD46 cell surface expression on RPMI8226 cells by FACS / flow cytometry; format: cell-based; details: for CD46 upregulation on RPMI8226 cells: 7-day exposure to varying concentrations, FACS on day-7; for CD46 expression (FACS): RPMI8226 cells treated with IMiDs for 3 and 10 days; for CD46 cell surface expression (MFI, flow cytometry): RPMI8226, 7 days 37° C.
# Method: Example 1: CD46 upregulation by exposure to pomalidomide and lenalidomide (FIGS. 1-2). The effect of pomalidomide and lenalidomide exposure to multiple myeloma (RPMI8226) cells was studied. RPMI8226 cells were treated with IMiDs (Pomalidomide and Lenalidomide) for 3 and 10 days (FIG. 1). CD46 expression was analyzed by FACS. CD38 was also measured as a reference. IMiDs-induced cell surface upregulation was observed only to selective antigens, e.g., CD46 but not CD38.
# FACS was performed on day-7. […] FACS was performed on day-14.
# FIG. 6: The multiple myeloma cell line RPMI8226 was incubated with 10 μM pomalidamide (pom) for 14 days, washed, and further incubated with 10 nM dexamethasone (dex) for 7 days. Cell surface CD46 expression was assessed by flow cytometry. MFI: median fluorescence intensity. Multiple group comparison was performed using One-way ANOVA. ** p<0.01; ****p<0.0001.
# Methods: RMPI8226 cells were exposed to varying concentrations of the Stat3 inhibitor C188-9 and the glucocorticoid receptor inhibitor mifepristone for 7 days at 37° C. in culture media, and cell surface CD46 expression is detected by flow cytometry using the anti-CD46 antibody YS5 followed by AlexaFluo-617 labeled anti-human Fc secondary antibody. MFI (median fluorescence intensity) was recorded and analyzed by One-way ANOVA.
# CD46 = target: T1, CD46; assay: flow cytometry on RPMI8226 cells with a labelled anti-human Fc secondary antibody
# Method: MFI (median fluorescence intensity) was recorded and analyzed by One-way ANOVA.
molecule,measurement,setting,value
Nc1cccc2c1C(=O)N(C1CCC(=O)NC1=O)C2=O (stereo not drawn) [pomalidomide],CD46 upregulation on RPMI8226 cells,[1],upregulation
same,CD46 expression (FACS),[1],upregulation
same,CD46 upregulation on multiple myeloma cell surface,[1]; prior exposure for a short period (7-10 days),rather persistent CD46 upregulation
CC#C[C@]1(O)CC[C@H]2[C@@H]3CCC4=CC(=O)CCC4=C3[C@@H](c3ccc(N(C)C)cc3)C[C@@]21C [mifepristone],"CD46 cell surface expression (MFI, flow cytometry)",[1]; mifepristone at high concentrations (50 μM),inhibits
Nc1cccc2c1CN(C1CCC(=O)NC1=O)C2=O (stereo not drawn) [lenalidomide],CD46 upregulation on RPMI8226 cells,[1],upregulation
same,CD46 expression (FACS),[1],upregulation
"COc1ccc(S(=O)(=O)Nc2cc(-c3c(O)ccc4ccccc34)c(O)c3ccccc23)cc1 [C188-9, N-(1′, 2-Dihydroxy-1,2′-binaphthalen-4′-yl)-4-methoxybenzenesulfonamide]","CD46 cell surface expression (MFI, flow cytometry)",[1]; high concentrations (50 μM),inhibits
same,"CD46 cell surface expression (MFI, flow cytometry)",[1]; low/mid concentrations (10 and 20 μM),stimulates
"YS5 (antibody, human IgG1, lambda, V domains shown, The format used in the assay is not otherwise stated; also called YS5FL; anti-CD46 antibody YS5) VH: QVQLVQSGGGVVQPGRSLRLACAASGLTVNNYAMHWVRQAPGKGLEWVAVISYDGNNKYYADSVKGRFTISRDNSKNTLYLQMNSLRAEDTAVYYCAKGGGYFDLWGRGTLVTVSS VL: QSVLTQPPSVSGAPGQRVTISCTGSSSNIGAGYDVHWYQQLPGTAPKLLIYGNNNRPSGVPDRFSGSKSGTSASLAITGLQAEDEADYYCSSYTSGTWLFGGGTKLTVLG",binding result,CD46,binds
